Laboratory results reported in publication PMC4775085 (ACS chemical neuroscience, 2015).
Values after ≈ are worked out from the molar mass of the structure shown. Values joined by “and” are separate entries in the source; they are usually repeats but may differ in a detail not shown here. Identical values can stand only once. Like-named read-outs stand apart in the source and are kept apart here.

Experiments:
HDAC6 = target: T1, HDAC6 (Homo sapiens, UniProt Q9UBN7); assay: HDAC6 enzymatic inhibition assay; type: biochemical; conditions: for Selectivity HDAC1/HDAC6: ratio of HDAC1 and HDAC6 IC50 of Table 1 (fold); for IC50: 10-point enzymatic assay starting from 30 μM, 3-fold serial dilution
T1 sequence (Q9UBN7 1-1215): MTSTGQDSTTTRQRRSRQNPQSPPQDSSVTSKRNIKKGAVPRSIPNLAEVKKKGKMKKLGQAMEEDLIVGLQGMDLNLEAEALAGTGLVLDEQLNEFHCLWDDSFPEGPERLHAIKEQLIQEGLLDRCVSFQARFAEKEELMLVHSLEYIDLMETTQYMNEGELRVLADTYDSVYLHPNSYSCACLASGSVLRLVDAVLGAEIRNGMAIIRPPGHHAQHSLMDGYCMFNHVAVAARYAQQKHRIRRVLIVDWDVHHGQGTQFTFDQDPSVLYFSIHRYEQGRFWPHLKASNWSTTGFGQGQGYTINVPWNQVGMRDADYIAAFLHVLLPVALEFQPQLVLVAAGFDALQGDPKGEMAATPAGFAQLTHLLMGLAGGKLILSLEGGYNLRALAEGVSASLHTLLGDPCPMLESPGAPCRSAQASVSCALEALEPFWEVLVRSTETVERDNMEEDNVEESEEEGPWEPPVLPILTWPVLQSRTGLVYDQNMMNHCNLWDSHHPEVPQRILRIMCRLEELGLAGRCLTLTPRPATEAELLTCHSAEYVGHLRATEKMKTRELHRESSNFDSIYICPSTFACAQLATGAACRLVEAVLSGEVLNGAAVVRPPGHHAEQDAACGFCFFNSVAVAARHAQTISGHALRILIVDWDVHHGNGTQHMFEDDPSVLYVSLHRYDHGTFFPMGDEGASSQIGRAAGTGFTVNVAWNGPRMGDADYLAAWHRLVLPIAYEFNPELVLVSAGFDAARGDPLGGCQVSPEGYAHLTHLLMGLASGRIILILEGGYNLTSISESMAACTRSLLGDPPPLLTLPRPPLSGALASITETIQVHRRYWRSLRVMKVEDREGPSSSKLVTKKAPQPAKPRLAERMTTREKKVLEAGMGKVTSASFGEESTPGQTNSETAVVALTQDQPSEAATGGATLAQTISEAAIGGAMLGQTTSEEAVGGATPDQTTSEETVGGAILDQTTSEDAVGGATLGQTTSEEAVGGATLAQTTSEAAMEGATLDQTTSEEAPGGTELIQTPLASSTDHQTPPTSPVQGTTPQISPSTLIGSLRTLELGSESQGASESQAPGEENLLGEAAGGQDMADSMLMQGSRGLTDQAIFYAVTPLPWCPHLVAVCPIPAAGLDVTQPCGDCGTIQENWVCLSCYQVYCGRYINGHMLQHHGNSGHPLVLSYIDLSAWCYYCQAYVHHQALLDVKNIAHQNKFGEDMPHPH

mutant HSPB1 DRG neurons = assay: Mitochondrial axonal transport in mutant HSPB1 DRG neurons; type: cell-based, mouse; conditions: DRG neurons from transgenic mutant HSPB1 mice, 100 nM overnight
Aqueous solubility = conditions: PBS; for solubility: pH 7.4, aqueous buffer
Caco-2 permeability = type: in vitro ADME; conditions: human, Caco-2, pH 7.4
[1] = Liver microsomes stability, human; type: in vitro ADME
[2] = Liver microsomes stability, mouse; type: in vitro ADME
[3] = Hepatocyte stability, human; type: in vitro ADME; conditions: hepatocytes
[4] = Hepatocyte stability, mouse; type: in vitro ADME; conditions: hepatocytes
Plasma stability, human = type: in vitro ADME; conditions: 120 min
Plasma stability, mouse = type: in vitro ADME; conditions: 120 min
CYP 2D6 = CYP 2D6 (Homo sapiens, UniProt P10635); assay: CYP inhibition 2D6; type: in vitro ADME
CYP 3A4-M = CYP 3A4-M (Homo sapiens, UniProt P08684); assay: CYP inhibition 3A4-M; type: in vitro ADME
CYP 3A4-T = CYP 3A4-T (Homo sapiens, UniProt P08684); assay: CYP inhibition 3A4-T; type: in vitro ADME
[5] = Intravenous and oral plasma pharmacokinetics in male CD1 mice; type: in vivo; conditions: CD1, mouse
CYP 1A2 = target: T2, CYP 1A2 (Homo sapiens, UniProt P05177); assay: CYP inhibition 1A2
T2 sequence (P05177 1-516): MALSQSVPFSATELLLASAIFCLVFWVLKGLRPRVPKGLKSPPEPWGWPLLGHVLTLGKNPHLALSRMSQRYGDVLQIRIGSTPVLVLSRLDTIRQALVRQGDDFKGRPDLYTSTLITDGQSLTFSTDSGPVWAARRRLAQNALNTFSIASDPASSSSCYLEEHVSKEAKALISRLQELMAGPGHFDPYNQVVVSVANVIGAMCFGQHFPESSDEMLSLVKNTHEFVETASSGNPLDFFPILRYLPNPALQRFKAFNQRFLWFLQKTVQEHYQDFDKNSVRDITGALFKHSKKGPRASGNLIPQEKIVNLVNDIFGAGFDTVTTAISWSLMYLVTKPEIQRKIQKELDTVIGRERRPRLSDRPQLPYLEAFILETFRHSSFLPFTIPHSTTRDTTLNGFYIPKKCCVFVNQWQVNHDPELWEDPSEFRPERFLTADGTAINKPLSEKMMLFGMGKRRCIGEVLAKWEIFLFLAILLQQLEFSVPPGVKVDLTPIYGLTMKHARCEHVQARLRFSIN

CYP 2C9 = CYP 2C9 (Homo sapiens, UniProt P11712); assay: CYP inhibition 2C9
CYP 2C19 = CYP 2C19 (Homo sapiens, UniProt P33261); assay: CYP inhibition 2C19
HDAC4 = HDAC4 (Homo sapiens, UniProt P56524); assay: HDAC4 enzymatic inhibition assay
HDAC5 = HDAC5 (Homo sapiens, UniProt Q9UQL6); assay: HDAC5 enzymatic inhibition assay
HDAC8 = target: T3, HDAC8 (Homo sapiens, UniProt Q9BY41); assay: HDAC8 enzymatic inhibition assay
T3 sequence (Q9BY41 1-377): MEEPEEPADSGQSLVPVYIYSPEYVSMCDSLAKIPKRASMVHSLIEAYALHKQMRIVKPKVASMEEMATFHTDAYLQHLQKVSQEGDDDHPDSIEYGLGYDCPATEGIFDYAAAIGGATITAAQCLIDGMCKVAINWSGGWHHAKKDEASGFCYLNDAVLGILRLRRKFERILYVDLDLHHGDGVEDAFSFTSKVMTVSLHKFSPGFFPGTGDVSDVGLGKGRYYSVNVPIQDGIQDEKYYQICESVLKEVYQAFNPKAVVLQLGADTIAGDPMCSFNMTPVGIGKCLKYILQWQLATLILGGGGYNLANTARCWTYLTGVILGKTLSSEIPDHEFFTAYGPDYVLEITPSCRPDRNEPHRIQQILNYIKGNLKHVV

[6] = IC50 (nM) HDAC6, mean of two experiments ± standard deviation

Sequence of CYP 2C19 (P33261 whole entry): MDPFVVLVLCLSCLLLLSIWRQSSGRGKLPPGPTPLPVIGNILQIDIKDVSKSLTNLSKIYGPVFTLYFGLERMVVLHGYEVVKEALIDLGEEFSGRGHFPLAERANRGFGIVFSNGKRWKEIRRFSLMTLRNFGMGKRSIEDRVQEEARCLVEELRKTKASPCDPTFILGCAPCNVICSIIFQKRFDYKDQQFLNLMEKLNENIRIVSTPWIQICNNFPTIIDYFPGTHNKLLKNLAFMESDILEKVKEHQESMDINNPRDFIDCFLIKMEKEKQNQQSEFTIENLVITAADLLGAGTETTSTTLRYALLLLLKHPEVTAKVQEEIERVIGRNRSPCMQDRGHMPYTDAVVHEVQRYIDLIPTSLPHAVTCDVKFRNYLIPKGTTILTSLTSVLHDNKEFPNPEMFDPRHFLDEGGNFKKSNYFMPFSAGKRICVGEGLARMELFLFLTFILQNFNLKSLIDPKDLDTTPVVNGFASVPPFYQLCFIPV
Sequence of CYP 2D6 (P10635 whole entry): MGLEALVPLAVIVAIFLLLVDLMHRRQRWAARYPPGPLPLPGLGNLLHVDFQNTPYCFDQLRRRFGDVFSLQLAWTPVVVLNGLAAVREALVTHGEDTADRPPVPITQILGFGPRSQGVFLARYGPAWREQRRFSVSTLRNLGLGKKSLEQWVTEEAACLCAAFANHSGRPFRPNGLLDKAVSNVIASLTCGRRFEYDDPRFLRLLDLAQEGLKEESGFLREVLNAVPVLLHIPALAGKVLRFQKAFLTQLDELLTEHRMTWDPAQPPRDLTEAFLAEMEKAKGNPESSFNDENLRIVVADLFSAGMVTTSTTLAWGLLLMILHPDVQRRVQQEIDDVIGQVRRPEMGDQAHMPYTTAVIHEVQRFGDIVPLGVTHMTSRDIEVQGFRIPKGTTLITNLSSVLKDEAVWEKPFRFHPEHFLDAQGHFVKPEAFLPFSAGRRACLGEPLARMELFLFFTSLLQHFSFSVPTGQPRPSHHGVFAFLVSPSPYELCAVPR
Sequence of CYP 2C9 (P11712 whole entry): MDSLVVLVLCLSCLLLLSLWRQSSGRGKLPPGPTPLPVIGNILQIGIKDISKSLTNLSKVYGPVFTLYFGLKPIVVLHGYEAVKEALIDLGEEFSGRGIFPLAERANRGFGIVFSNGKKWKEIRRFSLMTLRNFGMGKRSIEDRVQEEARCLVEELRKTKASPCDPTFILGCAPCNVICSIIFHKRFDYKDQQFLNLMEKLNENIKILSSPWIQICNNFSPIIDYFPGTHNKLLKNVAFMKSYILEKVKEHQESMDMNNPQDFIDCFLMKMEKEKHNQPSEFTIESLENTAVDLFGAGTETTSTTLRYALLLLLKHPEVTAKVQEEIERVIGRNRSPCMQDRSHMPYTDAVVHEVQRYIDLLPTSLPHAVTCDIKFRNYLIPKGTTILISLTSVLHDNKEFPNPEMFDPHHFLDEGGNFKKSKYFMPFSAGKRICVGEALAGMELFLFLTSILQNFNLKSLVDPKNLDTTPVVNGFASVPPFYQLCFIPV
Sequence of HDAC4 (P56524 whole entry): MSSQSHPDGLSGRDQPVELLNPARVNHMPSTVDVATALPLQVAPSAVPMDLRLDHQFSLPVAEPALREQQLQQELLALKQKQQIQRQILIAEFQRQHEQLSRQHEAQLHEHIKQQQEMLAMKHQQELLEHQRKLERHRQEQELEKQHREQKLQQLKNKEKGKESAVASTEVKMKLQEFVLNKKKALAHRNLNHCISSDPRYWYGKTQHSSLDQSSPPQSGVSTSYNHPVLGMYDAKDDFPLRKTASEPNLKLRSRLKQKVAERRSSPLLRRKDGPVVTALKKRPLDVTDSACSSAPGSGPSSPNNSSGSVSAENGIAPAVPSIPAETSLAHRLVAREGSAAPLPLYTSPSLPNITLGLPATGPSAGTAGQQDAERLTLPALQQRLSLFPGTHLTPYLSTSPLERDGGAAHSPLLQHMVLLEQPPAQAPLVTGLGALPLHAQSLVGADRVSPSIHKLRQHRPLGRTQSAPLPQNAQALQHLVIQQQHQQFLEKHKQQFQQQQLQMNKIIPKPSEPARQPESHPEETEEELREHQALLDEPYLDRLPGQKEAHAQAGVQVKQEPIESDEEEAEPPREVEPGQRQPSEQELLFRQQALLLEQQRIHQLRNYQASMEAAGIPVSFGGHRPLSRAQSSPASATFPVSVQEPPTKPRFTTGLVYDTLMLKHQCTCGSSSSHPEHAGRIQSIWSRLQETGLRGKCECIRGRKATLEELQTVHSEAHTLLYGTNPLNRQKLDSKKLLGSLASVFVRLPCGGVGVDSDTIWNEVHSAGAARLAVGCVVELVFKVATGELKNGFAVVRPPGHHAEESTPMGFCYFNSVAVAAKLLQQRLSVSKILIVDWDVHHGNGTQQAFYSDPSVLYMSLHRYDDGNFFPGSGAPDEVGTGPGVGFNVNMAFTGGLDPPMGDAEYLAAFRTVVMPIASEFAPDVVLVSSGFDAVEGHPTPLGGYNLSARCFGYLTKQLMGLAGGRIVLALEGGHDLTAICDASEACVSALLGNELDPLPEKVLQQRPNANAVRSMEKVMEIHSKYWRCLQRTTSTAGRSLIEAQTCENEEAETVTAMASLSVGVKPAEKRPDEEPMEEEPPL
Sequence of CYP 3A4-T (P08684 whole entry): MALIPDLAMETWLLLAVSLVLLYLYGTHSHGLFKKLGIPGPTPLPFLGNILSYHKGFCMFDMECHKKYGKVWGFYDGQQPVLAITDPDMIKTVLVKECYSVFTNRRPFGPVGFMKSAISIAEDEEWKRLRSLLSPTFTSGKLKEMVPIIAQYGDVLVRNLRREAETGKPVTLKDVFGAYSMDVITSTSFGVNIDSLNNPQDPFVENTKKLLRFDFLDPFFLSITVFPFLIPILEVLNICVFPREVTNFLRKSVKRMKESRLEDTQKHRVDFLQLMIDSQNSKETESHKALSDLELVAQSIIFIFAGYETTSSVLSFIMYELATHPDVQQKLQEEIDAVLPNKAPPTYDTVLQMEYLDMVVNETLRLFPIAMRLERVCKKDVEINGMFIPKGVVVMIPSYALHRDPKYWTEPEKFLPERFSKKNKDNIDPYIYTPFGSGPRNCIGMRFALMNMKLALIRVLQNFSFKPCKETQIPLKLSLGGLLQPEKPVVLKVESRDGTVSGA
Sequence of CYP 3A4-M (P08684 whole entry): as above
Sequence of HDAC5 (Q9UQL6 whole entry): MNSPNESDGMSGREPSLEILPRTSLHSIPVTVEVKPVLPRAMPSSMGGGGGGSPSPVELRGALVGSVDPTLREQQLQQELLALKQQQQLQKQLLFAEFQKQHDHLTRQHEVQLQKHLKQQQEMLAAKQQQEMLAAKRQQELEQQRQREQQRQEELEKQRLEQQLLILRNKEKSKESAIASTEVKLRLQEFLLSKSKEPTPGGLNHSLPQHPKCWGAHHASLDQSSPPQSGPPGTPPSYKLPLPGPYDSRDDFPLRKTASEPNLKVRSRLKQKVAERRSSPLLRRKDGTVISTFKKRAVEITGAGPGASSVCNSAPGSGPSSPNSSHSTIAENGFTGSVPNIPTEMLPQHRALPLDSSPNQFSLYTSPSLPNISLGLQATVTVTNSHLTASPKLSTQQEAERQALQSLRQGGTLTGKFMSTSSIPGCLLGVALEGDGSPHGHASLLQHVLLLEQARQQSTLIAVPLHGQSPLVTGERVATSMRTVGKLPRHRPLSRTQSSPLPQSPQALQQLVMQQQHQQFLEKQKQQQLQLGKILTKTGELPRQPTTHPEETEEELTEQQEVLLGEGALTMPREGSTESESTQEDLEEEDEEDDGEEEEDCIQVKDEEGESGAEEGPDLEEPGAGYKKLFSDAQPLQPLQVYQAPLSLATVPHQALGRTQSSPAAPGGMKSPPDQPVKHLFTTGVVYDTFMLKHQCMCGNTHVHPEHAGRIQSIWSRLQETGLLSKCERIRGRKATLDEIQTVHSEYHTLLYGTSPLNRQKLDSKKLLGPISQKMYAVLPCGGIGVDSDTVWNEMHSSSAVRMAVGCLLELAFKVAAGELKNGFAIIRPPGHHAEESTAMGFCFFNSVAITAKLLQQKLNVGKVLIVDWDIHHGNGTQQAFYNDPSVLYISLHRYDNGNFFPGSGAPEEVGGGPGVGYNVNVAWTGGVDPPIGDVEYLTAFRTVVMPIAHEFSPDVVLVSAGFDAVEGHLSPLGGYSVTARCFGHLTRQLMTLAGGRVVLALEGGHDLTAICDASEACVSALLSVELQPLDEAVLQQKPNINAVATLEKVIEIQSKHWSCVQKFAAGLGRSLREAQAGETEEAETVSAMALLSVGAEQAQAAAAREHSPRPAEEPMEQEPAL

In the case of `Cc1nc2ccccc2n1Cc1ccc(C(=O)NO)cc1` [12a], the “fold increase in HDAC6 inhibitory potency” value (HDAC6; compared to 8 (hydrogen to methyl)) is reported as 3 fold, the “Selectivity HDAC1/HDAC6” value (HDAC6) is reported as 955 and the IC50 (HDAC6; read-out: IC50 (nM) HDAC6, mean of two experiments ± standard deviation) is reported as 9 nM and 9.2 nM. For the same molecule, the “mitochondrial axonal transport (number of moving mitochondria per 100 μm of neurite)” value (mutant HSPB1 DRG neurons) was “able to restore the movement of mitochondria” and the aqueous solubility (Aqueous solubility; pH 7.4) was 70 µM (≈ 19.7 µg/mL).
For `CC(C)c1nc2ccccc2n1Cc1ccc(C(=O)NO)cc1` [12b, N-Hydroxy-4-[(2-isopropyl-1-benzimidazolyl)methyl]benzamide], the “Selectivity HDAC1/HDAC6” value (HDAC6) was 589.
With `CC(=O)NCCCc1nc2ccccc2n1Cc1ccc(C(=O)NO)cc1` [12d, 4-[[2-(3-Acetamidopropyl)-1-benzimidazolyl]methyl]-N-hydroxybenzamide] the “Selectivity HDAC1/HDAC6” value (HDAC6) was 312.
With `CN(C)CCc1nc2ccccc2n1Cc1ccc(C(=O)NO)cc1` [12e, 4-[[2-[2-(Dimethylamino)ethyl]-1-benzimidazolyl]methyl]-N-hydroxybenzamide] the “Selectivity HDAC1/HDAC6” value (HDAC6) was 416.
In the case of `O=C(NO)c1ccc(CN2CCNc3ccccc32)cc1` [17a, 4-[[1,2,3,4-Tetrahydroquinoxalin-1-yl]methyl]-N-hydroxybenzamide], the IC50 (HDAC6; [6]) is reported as 3 nM.
For `O=C(NO)c1ccc(CN2CCN(CC3CC3)c3ccccc32)cc1` [17b, 4-[[4-(Cyclopropylmethyl)-1,2,3,4-tetrahydroquinoxalin-1-yl]-methyl]-N-hydroxybenzamide], the IC50 (HDAC6; [6]) was 39.3 ± 0.3 nM.
`O=C(NO)c1ccc(CN2CCSc3ccccc32)cc1` [17c, 4-[[2,3-Dihydro-4H-benzo[b][1,4]thiazin-4-yl]methyl]-N-hydroxybenzamide] gave an IC50 (HDAC6; [6]) of 6 nM.
`CC(C)(C)OC(=O)N1CC(=O)N(Cc2ccc(C(=O)NO)cc2)c2ccccc21` [17e, tert-Butyl 4-[4-(Hydroxycarbamoyl)benzyl]-3-oxo-3,4-dihydroquinoxaline-1(2H)-carboxylate] gave an IC50 (HDAC6; [6]) of 34 nM.
Work on `O=C(NO)c1ccc(Cn2c(=O)cnc3ccccc32)cc1` [17f, N-Hydroxy-4-[(2-oxoquinoxalin-1(2H)-yl)methyl]benzamide] yielded an IC50 (HDAC6; [6]) of 1 nM.
With `Cc1nc2ccccc2n1Cc1nc(C(=O)NO)co1` [23a, N-Hydroxy-2-[(2-methyl-1-benzimidazolyl)methyl]oxazole-4-carboxamide] the “fold reduction of HDAC6 activity compared to 12a” value (HDAC6) was > 400 fold.
For `Cc1nc2ccccc2n1Cc1nc(C(=O)NO)cs1` [23b, N-Hydroxy-2-[(2-methyl-1-benzimidazolyl)methyl]thiazole-4-carboxamide], the IC50 (HDAC6; [6]) was 8310 ± 905 nM and the “fold reduction of HDAC6 activity compared to 12a” value (HDAC6) was > 900 fold.
`Cc1nc2ccccc2n1Cc1ccc(C(=O)NO)cn1` [23c, N-Hydroxy-6-[(2-methyl-1-benzimidazolyl)methyl]nicotinamide] showed an IC50 (HDAC6; [6]) of 77 nM.
For `Cc1nc2ccccc2n1Cc1ccc(C(=O)NO)cc1F` [23d, 3-Fluoro-N-hydroxy-4-[(2-methyl-1-benzimidazolyl)methyl]-benzamide], the “mitochondrial axonal transport (number of moving mitochondria per 100 μm of neurite)” value (mutant HSPB1 DRG neurons) was “able to restore the movement of mitochondria”, the Papp A→B (Caco-2 permeability) was 3.89 ×10⁻⁶ cm/s and the Papp B→A (Caco-2 permeability) was 13.2 ×10⁻⁶ cm/s. The half-life [1] was 32.4 h, the half-life [2] was 4.75 h and the half-life [3] was 24.8 h. For the same molecule, the half-life [4] was 0.667 h, the “plasma stability remaining percentage” value (Plasma stability, human) was 93.4% and the “plasma stability remaining percentage” value (Plasma stability, mouse) was 87.9%. The IC50 (CYP 2D6) was > 50000 nM, the IC50 (CYP 3A4-M) was > 50000 nM and the IC50 (CYP 3A4-T) was 36000 nM. It also gave an AUC(0-inf) ([5]; iv, 3 mg/kg) of 1480 ng·h/mL, a Vd ([5]; iv, 3 mg/kg) of 0.382 L/kg and a clearance ([5]; iv, 3 mg/kg) of 34 mL/min/kg. It also gave a half-life ([5]; iv, 3 mg/kg) of 0.851 h, an AUC(0-inf) ([5]; po, 30 mg/kg) of 3100 ± 84 ng·h/mL and a Cmax ([5]; po, 30 mg/kg) of 4370 ± 470 ng/mL. The Tmax ([5]; po, 30 mg/kg) was 0.25 h, the IC50 (CYP 1A2) was > 50000 nM and the IC50 (CYP 2C9) was > 50000 nM. The IC50 (CYP 2C19) was > 50000 nM, the solubility (Aqueous solubility) was 302 µM (≈ 90.4 µg/mL) and the IC50 (HDAC4) was 470 nM. For the same molecule, the IC50 (HDAC5) was 182 nM and the IC50 (HDAC8) was 176 nM.
With `O=C(NO)c1ccc(Cn2c(C(F)(F)F)nc3ccccc32)c(F)c1` [23e, 3-Fluoro-N-hydroxy-4-[(2-(trifluoromethyl)-1-benzimidazolyl)-methyl]benzamide] the IC50 (HDAC6; [6]) was 16 nM and the “Selectivity HDAC1/HDAC6” value (HDAC6) was 1500.
In the case of `Cc1nc2cc(F)ccc2n1Cc1ccc(C(=O)NO)cc1` [30b, 4-[(5-Fluoro-2-methyl-1-benzimidazolyl)methyl]-N-hydroxybenzamide], the IC50 (HDAC6; [6]) is reported as 6 nM.
With `CN1CCc2c(c3ccccc3n2Cc2ccc(C(=O)NO)cc2)C1` [tubastatin A, reference compound] the “mitochondrial axonal transport (number of moving mitochondria per 100 μm of neurite)” value (mutant HSPB1 DRG neurons) was “able to restore the movement of mitochondria”, the Papp A→B (Caco-2 permeability) was 2 ×10⁻⁶ cm/s and the Papp B→A (Caco-2 permeability) was 19.7 ×10⁻⁶ cm/s. For the same molecule, the half-life [1] was 25.3 h, the half-life [2] was 5.05 h and the half-life [3] was 1.47 h. The half-life [4] was 0.5 h, the “plasma stability remaining percentage” value (Plasma stability, human) was 96.4% and the “plasma stability remaining percentage” value (Plasma stability, mouse) was 83.0%. It also gave an IC50 (CYP 2D6) of 16000 nM, a clearance ([5]; iv, 3 mg/kg) of 222 mL/min/kg and a Tmax ([5]; po, 30 mg/kg) of 0.25 h. For the same molecule, the IC50 (CYP 1A2) was > 50000 nM, the IC50 (CYP 2C9) was > 50000 nM and the IC50 (CYP 2C19) was > 50000 nM. For the same molecule, the solubility (Aqueous solubility) was 301 µM (≈ 101 µg/mL).
